Laboratory results: paper PMC9867533, “A New Anticancer Semisynthetic Theobromine Derivative Targeting EGFR Protein: CADDD Study” (Life, 2023)
pIC50: −log10 of the molar value.

Molecular target: EGFR^WT (Homo sapiens, UniProt P00533)
Assay: in vitro EGFR kinase inhibition assay (human EGFR ELISA kit)
Assay type: biochemical

Sequence of EGFR^WT (P00533 25-1210): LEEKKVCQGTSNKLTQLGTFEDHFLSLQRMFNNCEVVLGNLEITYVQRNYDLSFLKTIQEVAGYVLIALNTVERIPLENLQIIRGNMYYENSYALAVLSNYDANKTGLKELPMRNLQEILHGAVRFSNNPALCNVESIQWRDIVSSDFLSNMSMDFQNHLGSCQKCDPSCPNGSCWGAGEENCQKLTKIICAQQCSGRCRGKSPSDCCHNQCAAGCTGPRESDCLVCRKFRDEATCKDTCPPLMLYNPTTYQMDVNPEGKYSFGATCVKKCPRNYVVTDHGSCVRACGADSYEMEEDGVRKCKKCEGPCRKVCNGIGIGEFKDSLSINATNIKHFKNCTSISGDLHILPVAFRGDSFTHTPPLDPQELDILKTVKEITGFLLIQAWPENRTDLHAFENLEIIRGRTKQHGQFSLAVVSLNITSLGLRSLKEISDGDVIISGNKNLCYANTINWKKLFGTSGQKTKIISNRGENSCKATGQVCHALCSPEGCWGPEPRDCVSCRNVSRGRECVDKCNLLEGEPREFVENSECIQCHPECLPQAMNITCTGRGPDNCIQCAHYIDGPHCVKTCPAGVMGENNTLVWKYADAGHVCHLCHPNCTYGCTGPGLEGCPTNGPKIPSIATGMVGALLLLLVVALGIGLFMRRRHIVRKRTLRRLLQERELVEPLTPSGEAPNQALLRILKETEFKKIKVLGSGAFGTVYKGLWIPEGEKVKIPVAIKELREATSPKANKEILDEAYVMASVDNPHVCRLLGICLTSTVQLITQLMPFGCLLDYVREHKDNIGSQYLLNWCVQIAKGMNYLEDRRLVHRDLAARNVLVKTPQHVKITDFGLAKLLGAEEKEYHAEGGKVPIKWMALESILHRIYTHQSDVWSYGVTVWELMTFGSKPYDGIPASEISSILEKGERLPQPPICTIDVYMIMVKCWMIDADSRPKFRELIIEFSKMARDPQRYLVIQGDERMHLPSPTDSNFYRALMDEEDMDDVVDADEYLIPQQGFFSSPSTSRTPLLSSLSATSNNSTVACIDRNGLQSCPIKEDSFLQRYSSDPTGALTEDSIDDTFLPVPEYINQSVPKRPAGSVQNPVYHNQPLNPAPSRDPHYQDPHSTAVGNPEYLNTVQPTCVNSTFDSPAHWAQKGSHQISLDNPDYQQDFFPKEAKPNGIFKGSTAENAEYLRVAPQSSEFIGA

pIC50: 7.60
SMILES: Cn1cnc2c1c(=O)n(CC(=O)Nc1ccc(Cl)cc1)c(=O)n2C [T-1-PCPA, N-(4-Chlorophenyl)-2-(3,7-dimethyl-2,6-dioxo-2,3,6,7-tetrahydro-1H-purin-1-yl)acetamide]
